From patent publication US8242118B2, “Arylsulfonamide derivatives for use as CCR3 antagonists in the treatment of inflammatory and immunological disorders” (Axikin Pharmaceuticals Inc., priority 2001, dated 2012)

Key:
[1] = target: T1, Human CCR3 (Homo sapiens, UniProt P51677); experiment: Receptor binding assay (RBA), [125I]-eotaxin; settings: human CCR3-transformed K562 cells, 0.1 nM [125I]-eotaxin; compounds of about 40 to 90% purity; read-out: Activity grade RBA (IC50 class)
T1 construct: The cloned CCR3 cDNA was constructed with pcDNA3 vector and transfected into a IC562 cell line; expressed in transfected cells
T1 sequence (P51677 1-355): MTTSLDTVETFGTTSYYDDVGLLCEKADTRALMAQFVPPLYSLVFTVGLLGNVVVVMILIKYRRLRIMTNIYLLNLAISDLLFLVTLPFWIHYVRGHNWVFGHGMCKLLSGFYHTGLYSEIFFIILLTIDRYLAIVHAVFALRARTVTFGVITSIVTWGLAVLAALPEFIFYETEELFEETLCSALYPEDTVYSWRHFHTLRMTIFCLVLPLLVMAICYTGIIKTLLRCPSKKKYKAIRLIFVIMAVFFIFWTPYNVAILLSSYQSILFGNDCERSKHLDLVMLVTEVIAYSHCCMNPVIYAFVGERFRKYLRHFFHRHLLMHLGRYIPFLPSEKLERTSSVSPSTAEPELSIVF
How it was run: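 Butyrate-pretreated (5 mM, 20-24 h) CCR3-transfected K562 cells incubated 1 h at room temperature with compound and 0.1 nM final [125I]-eotaxin in HEPES pH 7.6 buffer; bound radioactivity counted after filtration. Non-specific binding with 500 nM unlabeled eotaxin; IC50 from inhibition curve.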

Row | Compound | IC50 [1] | melting point
1 | COCCCN1CCN(S(=O)(=O)c2cc([N+](=O)[O-])ccc2Oc2cc(Cl)cc(Cl)c2)CC1 [Example 4-36] | < 1000 nM | 145 °C
2 | Cc1cc(C)cc(Oc2ccc(N)cc2S(=O)(=O)N2CCNCC2)c1.O=C(O)C(F)(F)F [Example 5-3] | > 10000 nM | 133 to 135 °C
3 | CCN1CCN(S(=O)(=O)c2cc(Cl)ccc2Oc2cc(C)cc(C)c2)CC1 [Example 5-4] | < 1000 nM | 120 to 122 °C
4 | CCN1CCN(S(=O)(=O)c2cc(I)ccc2Oc2cc(C)cc(C)c2)CC1 [Example 5-5] | < 1000 nM | 133 to 134 °C
5 | Cc1cc(C)cc(Oc2ccc(I)cc2S(=O)(=O)N2CCNCC2)c1.Cl [Example 5-6] | < 1000 nM | 241 to 243 °C
6 | Cc1cc(C)cc(Oc2cc(C)c(N)cc2S(=O)(=O)N2CCNCC2)c1.Cl.Cl [Example 5-7] | > 10000 nM | 183 °C
7 | Cc1cc(C)cc(Oc2ccc(F)cc2S(=O)(=O)N2CCNCC2)c1 [Example 6-3] | < 1000 nM | 116 to 118 °C

The remaining lines, values ahead:

Row | IC50 [1] | melting point | Compound
8 | 1000 to 10000 nM | 242 to 247 °C | Cc1cc(C)cc(Oc2ccc(S(=O)(=O)N(C)C)cc2S(=O)(=O)N2CCNCC2)c1.Cl [Example 10-2]
9 | 1000 to 10000 nM | 90 to 93 °C | N#Cc1ccc(Oc2cc(Cl)cc(Cl)c2)c(S(=O)(=O)N2CCCC3CN(Cc4ccccc4)CC32)c1 (stereo not drawn) [Example 13-2]
10 | < 1000 nM | 311 to 312 °C | N#Cc1ccc(Oc2cc(Cl)cc(Cl)c2)c(S(=O)(=O)N2C[C@H]3C[C@@H]2CN3)c1 [Example 13-4]
11 | 1000 to 10000 nM | 163 to 165 °C | N#Cc1ccc(Oc2cc(Cl)cc(Cl)c2)c(S(=O)(=O)N2C[C@@H]3CCCN[C@@H]3C2)c1 [Example 13-5]
12 | < 1000 nM | 240 °C | COCCCN1CCN(S(=O)(=O)c2cc(C#N)ccc2Oc2cc(Cl)cc(Cl)c2)CC1 [Example 13-7]
